Consider 18 molecules from ChEMBL document CHEMBL4411276, “Chemistry-oriented synthesis (ChOS) and target deconvolution on neuroprotective effect of a novel scaffold, oxaza spiroquinone” (Eur J Med Chem, 2019).

SMILES strings stand for the structures. pIC50: −log10 of the molar value.

One series relates to BV-2. The series can be described thus: Anti-inflammatory activity in mouse BV2 cells assessed as reduction in LPS-induced NO production pre-treated before LPS stimulation for 24 hrs by Griess reagent-based assay. Type of series: functional, cell-based.
The nature of series [1]: Cytotoxicity against LPS-stimulated mouse BV2 cells assessed as cell survival after 24 hrs by MTT assay relative to control. Type of series: cell-based, BV-2. Also noted: concentration or dose not given beside the values. As to conditions: read-out: Survival.
The nature of series [2]: Cytotoxicity against mouse BV2 cells assessed as cell survival after 24 hrs by MTT assay relative to control. Type of series: cell-based, BV-2. On the set-up: concentration or dose not given beside the values. As to conditions: read-out: Survival.

As for `O=C1C=CC2(C=C1)OCCC(=O)N2c1ccccc1`, the pIC50 in the series on BV-2 was 5.89. Also, the results for the viability at 24 h in series [1] and in series [2] were 79.8% and 102%, respectively.

As for `O=C1C=CC2(C=C1)OCC(Cc1c(F)cccc1C(F)(F)F)C(=O)N2c1ccccc1` (stereo unspecified), the pIC50 in the series on BV-2 is 6.22. Also, the figures for the viability at 24 h in series [1] and in series [2] were 71.1% and 84.4%, respectively.

`O=C1C=CC2(C=C1)OCC(Cc1ccc(C(F)(F)F)cc1[N+](=O)[O-])C(=O)N2c1ccccc1` (stereo unspecified): the negative-log IC50 (pIC50) in the series on BV-2 is 6.01.

In the case of `O=C1C=CC2(C=C1)OCC(Cc1ccc(F)cc1)C(=O)N2c1ccccc1` (stereo unspecified), the pIC50 in the series with BV-2 was 6.40. Besides, the values for the viability at 24 h in series [1] and in series [2] were 85.2% and 82.9%, respectively.

Consider `O=C1C=CC2(C=C1)OCC(Cc1ccc(Cl)cc1)C(=O)N2c1ccccc1` (stereo unspecified), for which the pIC50 with BV-2 was 6.27. In addition, the viability at 24 h was determined as 79% in series [1] and 91% in series [2].

As to `C=C(C)CC1COC2(C=CC(=O)C=C2)N(c2ccccc2)C1=O` (stereo unspecified), the pIC50 with BV-2 is 6.35. The viability at 24 h in series [1] stood at 80.1%; in series [2], 91.4%.

On to `O=C1C=CC2(C=C1)OCC(Cc1ccc([N+](=O)[O-])cc1)C(=O)N2c1ccccc1` (stereo unspecified), for which the pIC50 in the series with BV-2 is 6.37. Moreover, the viability at 24 h in series [1] came out at 82.7%; in series [2], 95.5%.

As for `CNC(=N)NCCC[C@H](N)C(=O)O` [TILARGININE], the pIC50 in the series on BV-2 is 4.79. In addition, the viability at 24 h in series [1] was determined as 60.5%.

Consider `O=C1C=CC2(C=C1)OCC(Cc1cc(C(F)(F)F)ccc1Cl)C(=O)N2c1ccccc1` (stereo unspecified), for which, in the series on BV-2, the pIC50 is 6.11. In addition, the viability at 24 h in series [1] was determined as 64.4%; in series [2] it was 70.5%.

Regarding `C=CCC1COC2(C=CC(=O)C=C2)N(c2ccccc2)C1=O` (stereo unspecified), the pIC50 with BV-2 is 5.99. The viability at 24 h in series [1] amounted to 84.6%; in series [2] it was 89.7%.

For the molecule `Cc1cc(C)cc(CC2COC3(C=CC(=O)C=C3)N(c3ccccc3)C2=O)c1` (stereo unspecified), in the series with BV-2, the pIC50 was 5.74. Further, the values for the viability at 24 h in series [1] and in series [2] were 78% and 94.2%, respectively.

Take `O=C1C=CC2(C=C1)OCC(Cc1cccc(Br)c1)C(=O)N2c1ccccc1` (stereo unspecified): in the series with BV-2, the pIC50 is 6.27. For the same molecule, the values for the viability at 24 h in series [1] and in series [2] were 74% and 96%, respectively.

Regarding `O=C1C=CC2(C=C1)OCC(Cc1ccc(Br)cc1)C(=O)N2c1ccccc1` (stereo unspecified), the pIC50 with BV-2 was 5.86. Also, the viability at 24 h in series [1] turned out to be 72%; in series [2] it was 82.7%.

For `O=C1C=CC2(C=C1)OCC(Cc1ccccc1CS(=O)(=O)c1ccccc1)C(=O)N2c1ccccc1` (stereo unspecified), the pIC50 in the series with BV-2 was 6.01. The results for the viability at 24 h in series [1] and in series [2] were 84.3% and 97.5%, respectively.

As to `O=C1C=CC2(C=C1)OCC(Cc1ccc(C(F)(F)F)cc1)C(=O)N2c1ccccc1` (stereo unspecified), in the series on BV-2, the pIC50 is 5.78. The figures for the viability at 24 h in series [1] and in series [2] were 84.1% and 87.1%, respectively.

Regarding `CC1COC2(C=CC(=O)C=C2)N(c2ccccc2)C1=O` (stereo unspecified), in the series on BV-2, the pIC50 was 5.91. The viability at 24 h in series [1] was found to be 72.8%; in series [2] it was 86.1%.

Consider `O=C1C=CC2(C=C1)OCC(Cc1ccccc1)C(=O)N2c1ccccc1` (stereo unspecified), for which the pIC50 in the series with BV-2 was 6.24. Also, the viability at 24 h in series [1] came to 76.1%; in series [2] it was 82.1%.

On to `C=CCCC1COC2(C=CC(=O)C=C2)N(c2ccccc2)C1=O` (stereo unspecified), for which the pIC50 in the series on BV-2 was 6.14. In addition, the viability at 24 h in series [1] is 80.4%; in series [2] it was 89%.
